# Measurements: patent US20250326834A1, “COMBINATION THERAPY OF CLAUDIN 18.2 ANTAGONIST AND PD-1/PD-L1 AXIS INHIBITOR” (SUZHOU TRANSCENTA THERAPEUTICS CO., LTD., priority 2021, published 2025)
# Tests used:
# [1] = tested on: CT26-CLDN18.2 syngeneic tumor; assay: CT26-CLDN18.2 syngeneic tumor model, 18B10 and Atezolizumab; type: in vivo, BALB/c mice
# Description: CT26 is synergic mouse tumor model. CT26-CLDN18.2 was purchased from Kyinno (Cat #, KC-1195), which was stalely transfected with human CLDN18.2 expression. The tumor cells were routinely sub-cultured twice weekly by trypsin-EDTA treatment (Hyclone). The cells growing in an exponential growth phase were harvested and counted for tumor inoculation. Female SPF grade BALB/c mice were inoculated with 2×10^6 CT26-CLDN18.2 cells. Animal were selected and randomized to 4 groups (n=8) when tumors grow to 80-120 mm^3. Animals were then treated with either 10 mg/kg Isotype control, 10 mg/kg anti-CLDN18.2 antibody 18B10, 3 mg/kg anti-PD-L1 antibody Atezolizumab, or 10 mg/kg anti-CLDN18.2 antibody 18B10 and 3 mg/kg anti-PD-L1 antibody Atezolizumab twice a week for 3 weeks by i.p. injection. Tumor size was measured twice a week in two dimensions using a caliper (INSIZE) and the volume was expressed in mm^3 using the formula: V=0.5 a×b^2 where a and b are the long and short diameters of the tumor, respectively. Results were analyzed using Prism GraphPad and expressed as mean±S.E.M. Comparisons between two groups were made by T-test, and the difference is considered significant if p is *<0.05 and **<0.01.
# [2] = tested on: MC38-CLDN18.2 syngeneic tumor; assay: MC38-CLDN18.2 syngeneic tumor model, 18B10 and Atezolizumab; type: in vivo, C57BL/6 mice
# Description: MC38-CLDN18.2 was purchase from Kyinno (Cat #, KC-1449), which was stable transfected with human CLDN18.2 expression. The tumor cells were routinely sub-culture twice weekly by trypsin-EDTA treatment (Hyclone). The cells growing in an exponential growth phase were harvested and counted for tumor inoculation. Female SPF grade C57BL/6 mice were inoculated with 2×10^6 MC38-CLDN18.2 cells. Animal were selected and randomized to 4 groups (n=6) when tumors grow to 70-100 mm^3. Animals were then treated with 13 mg/kg Isotype control, 10 mg/kg anti-CLDN18.2 antibody 18B10, 3 mg/kg anti-PD-L1 antibody Atezolizumab, 10 mg/kg anti-CLDN18.2 antibody 18B10 and 3 mg/kg anti-PD-L1 antibody Atezolizumab twice a week for 4 weeks by i.p. injection. Tumor size was measured twice a week in two dimensions using a caliper (INSIZE) and the volume was expressed in mm^3 using the formula: V=0.5 a×b^2 where a and b are the long and short diameters of the tumor, respectively. Results were analyzed using Prism GraphPad and expressed as mean±S.E.M. Comparisons between two groups were made by T-test, and the difference is considered significant if p is *<0.05 and **<0.01.
# [3] = tested on: CLDN18.2-expressing gastric tumor cell lines NUGC-4, KATOIII and SNU-620; assay: Upregulation of PD-L1 expression on tumor cells by supernatant of target cell/PBMC co-culture, flow cytometry; type: cell-based; details: supernatant of target cell + human PBMC (E/T 40:1) with 30 μg/ml 18B10 (S3), or of target cell with 5 ng/ml IFN-γ (S4), 72 h
# Procedure: In this assay, three different CLDN18.2-expressing gastric tumor cell lines, NUGC-4 (JCRB, Cat #JCRBB0834), KATOIII (ATCC, Cat #HTB-103) and SNU-620 (Cobioer, Cat #CBP60508), were used as target cell and added to the cell culture plate. No antibody, 30 μg/ml of anti-CLDN18.2 antibody 18B10, 30 μg/ml of isotype control hIgG1 or 5 ng/ml IFN-γ were added into the corresponding wells with the target cell. After the plate was co-cultured at 37° C. for 30 mins, human PBMC as the effector cell was added with a E/T ratio of 40:1. The plate was incubated at 37° C. for 72 hours. At the end of incubation, 100 μl of cell culture supernatant of each well was transferred to another cell culture plate with the same target cell planted. After the second plate was incubated at 37° C. for 72 hours, the target cells were collected and analyzed for PD-L1 expression by flowcytometry using mouse anti-human PD-L1 antibody (BD Pharmingen, Cat #557924). S1 stood for the supernatant of the target cell alone; S2 stood for the supernatant of the target cell and human PBMC with isotype control hIgG1; S3 stood for the supernatant of the target cell and human PBMC with anti-CLDN18.2 antibody 18B10; S4 stood for the supernatant of the target cell with IFN-γ.
# [4] = 18B10 10 mg/kg, Atezolizumab 3 mg/kg
Substance,"antitumor activity compared with isotype control [1, 4]","TGI ([1]; Day 33, 18B10 10 mg/kg, Atezolizumab 3 mg/kg, i.p. twice a week for 3 weeks) [%]","Tumor size ([1]; Day 33, 18B10 10 mg/kg, Atezolizumab 3 mg/kg, i.p. twice a week for 3 weeks, mean ± S.E.M.) [mm^3]","CR ([1]; Day 33, animals per group)","antitumor activity compared with isotype control [2, 4]","TGI ([2]; Day 51, 18B10 10 mg/kg, Atezolizumab 3 mg/kg, i.p. twice a week for 4 weeks) [%]","Tumor size ([2]; Day 51, 18B10 10 mg/kg, Atezolizumab 3 mg/kg, i.p. twice a week for 4 weeks, mean ± S.E.M.) [mm^3]","CR ([2]; Day 51, animals per group)",PD-L1 expression of target cells compared to S1 group (target cell alone) [3]
Atezolizumab [reference compound],better antitumor activity compared with treatment with isotype control,71.16,1350.18 ± 366.69,2/8,better antitumor activity compared with treatment with isotype control,71.14,1154.61 ± 526.35,0/6,
"IFN-γ: IFN-γ, 5 ng/ml added to target cells as comparison (S4) [reference compound]",,,,,,,,,increased PD-L1 expression
